Patent US12083196B2, “Personal cleansing compositions with surfactants for increased foam performance” (ECOLAB USA INC., priority 2020, dated 2024)

Experiment: SITA Foam Analyzer foam creation
Assay type: physicochemical
From the text: The reagents used below include: • Alpha-Step® PC-48 is a C10-16 sodium methyl 2-sulfolaurate and disodium 2-sulfolaurate available from Stepan; • Stepan-Mild® L3 is a predominantly C12 reaction product of lauryl alcohol and lactic acid available from Stepan; • SLES is sodium laureth sulfate; • Cola® Teric is an amphoteric sultaine available from Colonial Chemical, Inc.; • Glucopon® […] is an alkyl polyglycoside available from BASF Corporation; • Suga® Nate is a sodium laurylglucosides hydrooxypropylsulfonate available from Colonial Chemicals, Inc; • Lathanol® LAL is a sodium lauryl sulfoacetate available from Stepan. All experiments ran through the SITA Foam Analyzer were as follows: Equipment: • 1) Foaming Apparatus • 2) SITA Software Reagents: • 1) 250 mL of each solution • 2) DI water Preparation: Equipment is prepared by turning the water bath on with ample time to warm up before running tests. Adjust water bath to desired temperature. Quality Assurance: Run a positive and negative control for every experiment. Ensure equipment is clean and free from any residual surfactant chemistry beforehand. In each experiment set, proper differentiation between chemistries can be seen if at least one of the tested chemistries has an “S” curve that depicts a change in the initial foam building and the lathering step. Experimental Procedure: • 1) Prepare water bath • 2) Open the “SITA-foam” software on the computer. […] Foam Generation • i. Series Count (cycles): number of measurement replicates (3-triplicate) • ii. Fill With: Volume of sample liquid (250 mL for each test) • iii. Stir Count: Number of stirrings for each test (70). This is also the number of measurements for each cycle. • iv. Stir Time: Stirring duration of sample (10 sec) • v. Revolution: RPM o the stirrer (900 RMP) • b. Cleansing • i. Click the shower icon to activate the automatic cleansing and rinsing function. The vessel will be cleaned automatically after each cycle of measurements. • ii. Normal cleansing will rinse out the vessel many times. Small cleansing indicates a faster cleansing process. All above parameters can be saved • 5) After setting the parameters, click on “Start Measurement” which is the green “Play” button to proceed with the experiment • 6) After each cycle of experiments automatic cleansing and rinsing is done in preparation for the next cycle of measurements as long as the instrument is connected to tap water or a cleansing liquid reservoir • 7) Each click on the green “Start Measurement” icon opens a new window. The current sample measurement results are all in the same project folder. To rename sample measurement files, right click on the open sample window, and click “save” to rename your sample file • 8) If an error occurs at any point with your sample, the measurement reading can be stopped by clicking the red square “Stop icon” or by pressing the large red button on the machine • 9) Organize the graph generated with the icons in the fourth section of the tool bar: create new plot, add/remove data from plot, change axis properties, and view properties. Click on the “Create new plot” icon to view the plot after the experiment is done or if it is still running. Right click to rename the plot, insert or remove the plot and display the foam buildup, foam decay, or both Establishing initial foaming of the single surfactants is important to establish baselines for comparison for the combinations of various surfactants. To establish the foaming properties of single surfactants, a high amount of each surfactant was analyzed in the SITA Foam Analyzer as described above. The final concentration of each surfactant in solution was 1%. The surfactants tested were sodium lauryl sulfate (SLES), a betaine, Cola® Teric CBS, Glucopon® […], Lathanol® LAL, and Suga® Nate 160NC. […] The compositions were tested for foaming using the SITA Foam Analyzer as described above. […]

Substance: sodium laureth sulfate [SLES]
- ability to reach saturation of foam (in words) (SLES 0.2 wt. %, second surfactant 0.005 wt. %, FIG. 3): unable to reach saturation
- foam height (cycle 0, SLES 0.2 wt. %, second surfactant 0.005 wt. %): 0 mL
- foam height (cycle 1, SLES 0.2 wt. %, second surfactant 0.005 wt. %): 147.3 mL
- foam height (cycle 2, SLES 0.2 wt. %, second surfactant 0.005 wt. %): 161 mL
- foam height (cycle 3, SLES 0.2 wt. %, second surfactant 0.005 wt. %): 168.3 mL
- foam height (cycle 4, SLES 0.2 wt. %, second surfactant 0.005 wt. %): 172.67 mL
- foam height (cycle 5, SLES 0.2 wt. %, second surfactant 0.005 wt. %): 174 mL
- foam height (cycle 6, SLES 0.2 wt. %, second surfactant 0.005 wt. %): 177 mL
- foam height (cycle 7, SLES 0.2 wt. %, second surfactant 0.005 wt. %): 185.67 mL
- foam height (cycle 8, SLES 0.2 wt. %, second surfactant 0.005 wt. %): 188.3 mL
- foam height (cycle 9, SLES 0.2 wt. %, second surfactant 0.005 wt. %): 193.67 mL
- foam height (cycle 10, SLES 0.2 wt. %, second surfactant 0.005 wt. %): 200 mL
- foam height (cycle 11, SLES 0.2 wt. %, second surfactant 0.005 wt. %): 202.3 mL
- foam height (cycle 12, SLES 0.2 wt. %, second surfactant 0.005 wt. %): 204.67 mL
- foam height (cycle 13, SLES 0.2 wt. %, second surfactant 0.005 wt. %): 210 mL
- foam height (cycle 14, SLES 0.2 wt. %, second surfactant 0.005 wt. %): 213 mL
- foam height (cycle 15, SLES 0.2 wt. %, second surfactant 0.005 wt. %): 217 mL
- foam height (cycle 16, SLES 0.2 wt. %, second surfactant 0.005 wt. %): 219.3 mL
- foam height (cycle 17, SLES 0.2 wt. %, second surfactant 0.005 wt. %): 221.3 mL
- foam height (cycle 18, SLES 0.2 wt. %, second surfactant 0.005 wt. %): 222.67 mL
- foam height (cycle 19, SLES 0.2 wt. %, second surfactant 0.005 wt. %): 224.3 mL
- foam height (cycle 20, SLES 0.2 wt. %, second surfactant 0.005 wt. %): 227.67 mL
- foam height (cycle 21, SLES 0.2 wt. %, second surfactant 0.005 wt. %): 228.3 mL
- foam height (cycle 22, SLES 0.2 wt. %, second surfactant 0.005 wt. %): 231 mL
- foam height (cycle 23, SLES 0.2 wt. %, second surfactant 0.005 wt. %): 232.67 mL
- foam height (cycle 24, SLES 0.2 wt. %, second surfactant 0.005 wt. %): 234.3 mL
- foam height (cycle 25, SLES 0.2 wt. %, second surfactant 0.005 wt. %): 235.3 mL
- foam height (cycle 26, SLES 0.2 wt. %, second surfactant 0.005 wt. %): 237 mL
- foam height (cycle 27, SLES 0.2 wt. %, second surfactant 0.005 wt. %): 237.67 mL
- foam height (cycle 28, SLES 0.2 wt. %, second surfactant 0.005 wt. %): 239 mL
- foam height (cycle 29, SLES 0.2 wt. %, second surfactant 0.005 wt. %): 239.67 mL
- foam height (cycle 30, SLES 0.2 wt. %, second surfactant 0.005 wt. %): 240 mL
- foam height (cycle 31, SLES 0.2 wt. %, second surfactant 0.005 wt. %): 240.67 mL
- foam height (cycle 32, SLES 0.2 wt. %, second surfactant 0.005 wt. %): 241.3 mL
- foam height (cycle 33, SLES 0.2 wt. %, second surfactant 0.005 wt. %): 242.3 mL
- foam height (cycle 34, SLES 0.2 wt. %, second surfactant 0.005 wt. %): 243 mL
- foam height (cycle 35, SLES 0.2 wt. %, second surfactant 0.005 wt. %): 243 mL
- foam height (cycle 36, SLES 0.2 wt. %, second surfactant 0.005 wt. %): 243.67 mL
- foam height (cycle 37, SLES 0.2 wt. %, second surfactant 0.005 wt. %): 244 mL
- foam height (cycle 38, SLES 0.2 wt. %, second surfactant 0.005 wt. %): 245.3 mL
- foam height (cycle 39, SLES 0.2 wt. %, second surfactant 0.005 wt. %): 245 mL
- foam height (cycle 40, SLES 0.2 wt. %, second surfactant 0.005 wt. %): 245 mL
- foam height (cycle 41, SLES 0.2 wt. %, second surfactant 0.005 wt. %): 245.67 mL
- foam height (cycle 42, SLES 0.2 wt. %, second surfactant 0.005 wt. %): 246 mL
- foam height (cycle 43, SLES 0.2 wt. %, second surfactant 0.005 wt. %): 246 mL
- foam height (cycle 44, SLES 0.2 wt. %, second surfactant 0.005 wt. %): 246.67 mL
- foam height (cycle 45, SLES 0.2 wt. %, second surfactant 0.005 wt. %): 246.67 mL
- foam height (cycle 46, SLES 0.2 wt. %, second surfactant 0.005 wt. %): 246.67 mL
- foam height (cycle 47, SLES 0.2 wt. %, second surfactant 0.005 wt. %): 247 mL
- foam height (cycle 48, SLES 0.2 wt. %, second surfactant 0.005 wt. %): 247.67 mL
- foam height (cycle 49, SLES 0.2 wt. %, second surfactant 0.005 wt. %): 247.67 mL
- foam height (cycle 50, SLES 0.2 wt. %, second surfactant 0.005 wt. %): 248 mL
- foam height (cycle 51, SLES 0.2 wt. %, second surfactant 0.005 wt. %): 248.67 mL
- foam height (cycle 52, SLES 0.2 wt. %, second surfactant 0.005 wt. %): 248.67 mL
- foam height (cycle 53, SLES 0.2 wt. %, second surfactant 0.005 wt. %): 248.67 mL
- foam height (cycle 54, SLES 0.2 wt. %, second surfactant 0.005 wt. %): 250 mL
- foam height (cycle 55, SLES 0.2 wt. %, second surfactant 0.005 wt. %): 250.3 mL
- foam height (cycle 56, SLES 0.2 wt. %, second surfactant 0.005 wt. %): 251.3 mL
- foam height (cycle 57, SLES 0.2 wt. %, second surfactant 0.005 wt. %): 250.3 mL
- foam height (cycle 58, SLES 0.2 wt. %, second surfactant 0.005 wt. %): 250 mL
- foam height (cycle 59, SLES 0.2 wt. %, second surfactant 0.005 wt. %): 251 mL
- foam height (cycle 60, SLES 0.2 wt. %, second surfactant 0.005 wt. %): 251.3 mL
- foam height (cycle 61, SLES 0.2 wt. %, second surfactant 0.005 wt. %): 251.67 mL
- foam height (cycle 62, SLES 0.2 wt. %, second surfactant 0.005 wt. %): 252.67 mL
- foam height (cycle 63, SLES 0.2 wt. %, second surfactant 0.005 wt. %): 252 mL
- foam height (cycle 64, SLES 0.2 wt. %, second surfactant 0.005 wt. %): 253 mL
- foam height (cycle 65, SLES 0.2 wt. %, second surfactant 0.005 wt. %): 253.67 mL
- foam height (cycle 66, SLES 0.2 wt. %, second surfactant 0.005 wt. %): 253.67 mL
- foam height (cycle 67, SLES 0.2 wt. %, second surfactant 0.005 wt. %): 253.67 mL
- foam height (cycle 68, SLES 0.2 wt. %, second surfactant 0.005 wt. %): 253 mL
- foam height (cycle 69, SLES 0.2 wt. %, second surfactant 0.005 wt. %): 253 mL
- foam height (cycle 70, SLES 0.2 wt. %, second surfactant 0.005 wt. %): 254 mL
- onset of foam saturation (in words) (single surfactant, 1%, FIG. 1): taking the longest to reach saturation
